# Assay results taken from patent publication US20010006942A1, “Chemokine receptor peptide vaccines for treatment and prevention of diabetes” (priority 1998, published 2001).
# Ends that are not written are not given here.
# Assays:
# anti-CXCR3 antibody = test: ELISA binding of receptor-derived peptides to anti-CXCR3 antibody; design: species or system mouse; conditions: peptide coated on plate, antibody 0.5 μg/well, 2 hours
# Experimental: The ability of these receptor-derived peptides to bind anti-CXCR3 antibody was evaluated using a standard ELISA format. The peptides were dissolved in 0.1 M bicarbonate buffer and coated on a 96 well ELISA plate overnight. The excess peptides were removed and nonspecific binding sites in the wells were blocked by 0.1 % bovine serum albumin. Anti-CXCR3 antibody (0.5 μg/well) was added to these wells and incubated for 2 hours. Excess antibody was removed by washing with PBS. HRP conjugated goat anti-mouse antibody was used as secondary antibody for detection. […] Further support for the conclusion that anti-CXCR3 antibody bound two of the seven receptor-derived peptides was provided by FACS analysis of the same interactions.
# [1] = system: CXCR3 cell line transfectant; test: FACS analysis: blocking of anti-CXCR3 antibody binding to CXCR3 transfectant; assay type: cell-based, human
# EAE = test: prevention of EAE in mice by peptide vaccination; conditions: SP4-1 with CFA s.c. at 21 and 14 days before induction of EAE with PLP 139-151, SJL mice
# Experimental: SJL mice (6-8 weeks old) were obtained from Jackson Laboratories. They were kept in quarantine for two weeks. […] For the experiments, induction of the disease is considered Day 0.
# The emulsion was taken in 1 ml syringe (needed 2 syringes) fitted with a 25 gauge needle. Each mouse was given 100 μl of the emulsin under each flank near the hind legs by subcutaneous injection (total volume per mouse=200 μl, total peptide per mouse=200 μg).
# One ml of PBS and 1 ml of CFA were mixed and sonicated for 5 seconds and the emulsin is drawn into a 1 ml syringe fitted with a 25 gauge needle. Each mouse was given 100 μl of this emulsion under each flank near hind legs by subcutaneous injection (total volume of CFA per mouse=200 μl).
# To an aqueous solution of peptide (4 mg per ml in PBS) equal volume of CFA was added and the mixture was sonicated for 5 seconds. The emulsion was drawn in a 1 ml syringe fitted with a 25 gauge needle and subcutaneously injected (200 μl total per mouse) in mice at the foot pad and back.
# [2] = system: human CXCR3 SP-4-1 peptide; test: serum ELISA for antibody response to SP4-1 peptide in vaccinated mice; assay type: in vivo; conditions: serum of vaccinated SJL mice, bled week 0 and week 5, ELISA
# Experimental: The mice were bled at week 0 and week 5 and serum was tested by ELISA for the presence of antibodies against the human CXCR3 SP-4-1 peptide. Briefly, the SP4-1 peptide dissolved in 0.1 M sodium bicarbonate buffer was plated on a 96-well ELISA plate overnight. The nonspecific binding sites on the plate were coated with 0.1% bovine serum albumin solution in PBS. The wells were washed and serum (diluted in PBS) was added to the wells and incubated at room temperature for 1.5 hours. The wells were then washed and HRP conjugated anti-mouse immunoglobulin antibody was used to detect the presence of anti-SP4-1 antibodies).
# [3] = target: T1, human CXCR3 (CXCR3-NSO transfectants) (Homo sapiens, UniProt P49682); test: microphysiometer bioassay for CXCR3 activation (extracellular acidification rate); assay type: cell-based; conditions: 1, 5, 10 mglml ligand pumped for 10 min
# T1 construct: expressed in transfected cells
# T1 sequence (P49682 1-368): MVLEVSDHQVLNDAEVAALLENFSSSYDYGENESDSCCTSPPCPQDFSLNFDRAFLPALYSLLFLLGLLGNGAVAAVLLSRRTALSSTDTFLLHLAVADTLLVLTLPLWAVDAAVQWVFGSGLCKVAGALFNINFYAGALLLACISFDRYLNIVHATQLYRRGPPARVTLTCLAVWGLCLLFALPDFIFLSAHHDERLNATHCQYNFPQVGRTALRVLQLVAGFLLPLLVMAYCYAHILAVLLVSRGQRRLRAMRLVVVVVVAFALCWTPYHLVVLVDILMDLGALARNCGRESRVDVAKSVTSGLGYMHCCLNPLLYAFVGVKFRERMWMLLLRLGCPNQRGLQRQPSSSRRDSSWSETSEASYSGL
# Experimental: (§1) 5X10^5 CXCR3-NSO transfectant cells and untransfected “BONZO-NSO” cells (negative control) were spotted in the microphysiometer chambers along with agarose and 1, 5, 10 […] anti-CXCR3 (FIG 1a) or IP-10 (FIG 1b) was pumped for 10 min. […] The arrow indicates the time that ligands were added to the cells.
# A stable line transfectant of NSO-1 cells expressing the cDNA for human CXCR3 was prepared according to standard techniques. The surface expression of hu-CXCR3 on the transfectants compared to untransfected parent NSO-1 cells was confirmed by FACS staining using mouse anti-human CXCR3 monoclonal antibody (R&D systems).
# (§2) To establish a bioassay for CXCR3 activation, the CXCR3 transfectant cells were cultured with either human IP-10, or the mouse anti-human CXCR3 antibody, and the physiological response of the cells was measured using a microphysiometer. This machine measures changes in the pH of the extracellular medium of the cell cultures which result from ligand receptor binding on the cell surface. These extracellular acidification rate measurements have previously been used as markers of antigen specific T cell activation and T cell epitope identification. The current assay is used to provide a biological read out for the identification of chemokine or chemokine receptor peptides involved in binding to IP- 10 or agonistic anti-CXCR3 antibody.
# [4] = system: untransfected NSO-1 cells; test: microphysiometer acidification rate, untransfected negative control cells; assay type: cell-based; conditions: untransfected NSO-1 (BONZO-NSO) cells
# Experimental: as §1, §2
Substance,binding to anti-CXCR3 antibody (anti-CXCR3 antibody),inhibition of binding of anti-CXCR3 antibody to CXCR3 transfectants [1],mice showing no clinical symptoms of EAE (EAE),antibody response against SP4-1 peptide [2],acidification rate changes [3],acidification rate changes [4],acidification rate changes ([4]; listed as IP-10)
DAAVQWVFGSGLCKV-NH2 [SP-2-1],nonbinding,failed to inhibit binding,–,–,–,–,–
DILMDLGALARNCGRESRVDVAKS-NH2 [SP-4-1],substantial binding,potently blocked binding,7 out of 8,show an antibody response against this peptide,–,–,–
PPCPQDFSLNFDRAFLPA-NH2 [SP-1-3],substantial binding,partial inhibition,–,–,–,–,–
"human IP-10: human chemokine IP-10, ligand of CXCR3",–,–,–,–,substantial acidification rate changes,no change in acidification rate,did not show any change in acidification rate changes
